This note sets out measurements from patent US20070264674A1, “Cytochrome P450 Induction Assay” (priority 2004, published 2007).

The target in data set [1] is T1, hCAR (Homo sapiens, UniProt Q14994).
T1 sequence (Q14994 1-348 isoform Q14994-2): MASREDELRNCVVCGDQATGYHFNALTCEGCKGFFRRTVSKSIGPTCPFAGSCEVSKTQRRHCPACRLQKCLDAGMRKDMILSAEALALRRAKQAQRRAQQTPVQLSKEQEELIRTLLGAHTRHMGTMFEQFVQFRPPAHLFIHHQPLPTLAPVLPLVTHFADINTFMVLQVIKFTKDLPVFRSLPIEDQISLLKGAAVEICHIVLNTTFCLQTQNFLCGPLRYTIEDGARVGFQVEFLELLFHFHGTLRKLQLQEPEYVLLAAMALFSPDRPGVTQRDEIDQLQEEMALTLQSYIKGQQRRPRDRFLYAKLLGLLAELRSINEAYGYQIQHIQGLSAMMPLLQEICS
Description: Primary rat hepatocytes cotransfected with clone 102-SEAP and hCAR. In kind it is cell-based. Further details: expressed in transfected cells; host or cells: primary rat hepatocytes (transient co-transfection, Effectene). Particulars: 10 μM Rifampicin, 1 μM CITCO, 1 mM Phenobarbital, 48 h. On the procedure:
(§1) After four hours, cell culture medium was changed with 1 mL Williams E medium containing Pen/Strep, glutamine and ITS+Premix and the cells were incubated overnight under normal growth condition.
(§2) This was followed by adding 3.2 μL Enhancer and mixing by vortexing for 1 second. […] The cotransfections were followed by adding 3.2 μL Enhancer and mixing by vortexing for 1 second. The transfections/cotransfections were incubated at room temperature for 5 minutes. Then, the mixtures were centrifuged for a few seconds to remove drops from the top of the tube. Next, to each of the mixtures, five μL of Effectene Transfection Reagent was added and the mixtures mixed by vortexing for 10 seconds. The mixtures were then incubated for ten minutes at room temperature to allow transfection complex formation.
(§3) Meanwhile, the growth medium for each of the wells of the 24-well plate containing the cells was removed from the wells and the cells in the wells washed once with 1 mL of growth medium. Then, 350 μL of fresh growth medium was added to each of the wells and 350 μL of growth medium was added to each of the tubes of transfection complexes, which were then mixed and immediately added drop-wise onto the cells in the well. The plates were gently swirled to ensure uniform distribution of the transfection complexes over the cells. […]

Data set [2] addresses T1, hCAR. Description: SEAP reporter assay in HepG2 cells co-transfected with human CAR. Format: cell-based. Particulars: HepG2 + human CAR (constitutive activation); 48 h; 200 μM Omeprazole, 6 μM Clotrimazole, 125 nM Hyperforin, 12.5 μM Lovastatin, 100 μM N-propyl-p-hydroxy-benzoate. Further details: A 1047 bp nucleic acid encoding the human CAR (hCAR) obtained from the RT-PCR; expressed in transfected cells; host or cells: HepG2 (transient co-transfection with the reporter plasmid). The protocol:
The NR donor plasmid encoding the human CAR was made as follows. The human CAR was made by RT-PCR from a human liver mRNA preparation. […] The RT-PCR conditions were 15 seconds at 94° C., 30 cycles of 94° C. for 30 seconds followed by 68° C. for 3 minutes, then 68° C. for 3 minutes, and storage at 4° C.
Controls omitted the DNA encoding the human CAR. Additional controls consisted of DNA encoding the human PXR of the previous example.
After incubating the cells 48 hours at 37° C., the medium form wells were collected for SEAP assays. The assays for SEAP expression were performed with Tropix Phospha-Light system kit.
In general terms: Reporter assays use an easily measured gene product as a stand-in for the process of interest.

The target in the next data set is T2, hPXR (Homo sapiens, UniProt O75469).
T2 sequence (O75469 1-434): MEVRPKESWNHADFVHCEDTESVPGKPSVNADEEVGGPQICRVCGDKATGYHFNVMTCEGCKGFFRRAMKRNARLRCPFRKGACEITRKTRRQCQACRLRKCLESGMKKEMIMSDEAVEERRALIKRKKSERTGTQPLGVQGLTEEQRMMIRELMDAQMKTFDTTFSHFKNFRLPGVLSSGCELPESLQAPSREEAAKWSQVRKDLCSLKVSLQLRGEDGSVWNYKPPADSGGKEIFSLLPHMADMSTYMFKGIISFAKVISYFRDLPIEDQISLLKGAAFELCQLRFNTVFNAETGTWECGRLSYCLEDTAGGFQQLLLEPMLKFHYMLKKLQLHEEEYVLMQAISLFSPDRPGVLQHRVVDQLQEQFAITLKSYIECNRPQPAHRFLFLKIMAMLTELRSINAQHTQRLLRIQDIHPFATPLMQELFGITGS
Description: Primary rat hepatocytes cotransfected with clone 102-SEAP and hPXR. The conditions noted are these: 10 μM Rifampicin, 1 μM CITCO, 1 mM Phenobarbital, 48 h. The protocol:
as §1, §2, §3

In data set [3] the test system is endogenous rat CAR or PXR. Description: Primary rat hepatocytes transfected with clone 102-SEAP and pUC19 (control, no nuclear receptor). Particulars: clone 102-SEAP + pUC19, 10 μM Rifampicin, 1 μM CITCO, 1 mM Phenobarbital, 48 h. On the procedure:
as §1, §2, §3

For the compound `Clc1ccc(-c2nc3sccn3c2C=NOCc2ccc(Cl)c(Cl)c2)cc1` [CITCO, 6-(4-Chlorophenyl)imidazo[2,1-b][1,3]thiazole-5-carbaldehyde O-(3,4-dichlorobenzyl)oxime], on hCAR [1], the “induction of clone 102-SEAP expression via hCAR” value is reported as “about 4.2 fold”.

As to `Clc1ccccc1C(c1ccccc1)(c1ccccc1)n1ccnc1` [Clotrimazole], at hCAR [2], the “effect on transcription from clone 102-SEAP composite promoter” value was “inhibitory effect” and the “effect on transcription from ΔCYP3A4 promoter” value was “inhibitory effect”.

For the compound `CC[C@H](C)C(=O)O[C@H]1C[C@@H](C)C=C2C=C[C@H](C)[C@H](CC[C@@H]3C[C@@H](O)CC(=O)O3)[C@H]21` [Lovastatin], the “effect on transcription from clone 102-SEAP composite promoter” value on hCAR [2] is listed as “not affected”.

As for `CCCOC(=O)c1ccc(O)cc1` [N-propyl-p-hydroxy-benzoate], at hCAR [2], the “effect on transcription from clone 102-SEAP composite promoter” value is given as “not affected” and the “effect on transcription from ΔCYP3A4 promoter” value is given as “moderate inhibition”.

`CCC1(c2ccccc2)C(=O)NC(=O)NC1=O` [Phenobarbital]: the “induction of clone 102-SEAP expression via hPXR” value on hPXR is reported as “about 3.4 fold”. Besides, the “induction of clone 102-SEAP without co-transfected nuclear receptor” value in data set [3] is given as “no response”.
